# PubChem BioAssay (NCI)
# Values joined by “and” are separate entries in the source; they are usually repeats but may differ in a detail not shown here. Equal values may be shown once.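 Test compounds were applied to cells in 96-well plates for 48 hours at 5 doses. GI50 = concentration required for 50% inhibition of growth. TGI marks complete inhibition of growth.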
# Key:
# Assay in all cases: inhibition of tumour cell growth, NCI panel, 48 h
# MDA-MB-231 breast = tested on: MDA-MB-231 breast
# HCT-15 colon = tested on: HCT-15 colon
# KM12 colon = tested on: KM12 colon
# SF-539 CNS = tested on: SF-539 CNS
# BT-549 breast = tested on: BT-549 breast
# SN12C renal = tested on: SN12C renal
# OVCAR-5 ovarian = tested on: OVCAR-5 ovarian
# CAKI-1 renal = tested on: CAKI-1 renal
# T-47D breast = tested on: T-47D breast
# MALME-3M melanoma = tested on: MALME-3M melanoma
# SK-OV-3 ovarian = tested on: SK-OV-3 ovarian
# HOP-92 NSCLC = tested on: HOP-92 NSCLC
# OVCAR-4 ovarian = tested on: OVCAR-4 ovarian
# EKVX NSCLC = tested on: EKVX NSCLC
# SF-268 CNS = tested on: SF-268 CNS
# HS 578T breast = tested on: HS 578T breast
# UACC-62 melanoma = tested on: UACC-62 melanoma
# K-562 leukemia = tested on: K-562 leukemia
# SW-620 colon = tested on: SW-620 colon
# MDA-N = tested on: MDA-N
# MOLT-4 leukemia = tested on: MOLT-4 leukemia
# NCI/ADR-RES ovarian = tested on: NCI/ADR-RES ovarian
# MDA-MB-435 = tested on: MDA-MB-435
# SNB-19 CNS = tested on: SNB-19 CNS
# OVCAR-3 ovarian = tested on: OVCAR-3 ovarian
# UO-31 renal = tested on: UO-31 renal
# RPMI-8226 leukemia = tested on: RPMI-8226 leukemia
# SK-MEL-2 melanoma = tested on: SK-MEL-2 melanoma
# IGROV1 ovarian = tested on: IGROV1 ovarian
# SK-MEL-28 melanoma = tested on: SK-MEL-28 melanoma
# SNB-75 CNS = tested on: SNB-75 CNS
# HCC-2998 colon = tested on: HCC-2998 colon
# HT29 colon = tested on: HT29 colon
# A549 NSCLC = tested on: A549 NSCLC
# NCI-H226 lung = tested on: NCI-H226 lung
# SK-MEL-5 melanoma = tested on: SK-MEL-5 melanoma
# HOP-62 NSCLC = tested on: HOP-62 NSCLC
# MCF7 breast = tested on: MCF7 breast
# HL-60(TB) leukemia = tested on: HL-60(TB) leukemia
# TK-10 renal = tested on: TK-10 renal
# NCI-H23 lung = tested on: NCI-H23 lung
# DU-145 prostate = tested on: DU-145 prostate
# NCI-H522 lung = tested on: NCI-H522 lung
# CCRF-CEM leukemia = tested on: CCRF-CEM leukemia
# ACHN renal = tested on: ACHN renal
# OVCAR-8 ovarian = tested on: OVCAR-8 ovarian
# COLO 205 colon = tested on: COLO 205 colon
# NCI-H460 lung = tested on: NCI-H460 lung
# M14 melanoma = tested on: M14 melanoma
# UACC-257 melanoma = tested on: UACC-257 melanoma
# 786-0 renal = tested on: 786-0 renal
# RXF 393 renal = tested on: RXF 393 renal
# SF-295 CNS = tested on: SF-295 CNS
# LOX IMVI melanoma = tested on: LOX IMVI melanoma
# PC-3 prostate = tested on: PC-3 prostate
# A498 renal = tested on: A498 renal
# U251 CNS = tested on: U251 CNS
# HCT-116 colon = tested on: HCT-116 colon
compound,measurement,setting,value
COCCOC1=CC(=O)c2c(O)ccc(O)c2C1=O,GI50,MDA-MB-231 breast,2450 nM
same,TGI,MDA-MB-231 breast,3230 nM and 6140 nM
same,GI50,HCT-15 colon,1600 nM
same,TGI,HCT-15 colon,2620 nM and 3380 nM
same,GI50,KM12 colon,3050 nM
same,TGI,KM12 colon,3540 nM and 11700 nM
same,TGI,SF-539 CNS,3120 nM and 3160 nM
same,TGI,BT-549 breast,3170 nM
same,GI50,SN12C renal,1460 nM
same,TGI,SN12C renal,3030 nM and 2830 nM
same,GI50,OVCAR-5 ovarian,1920 nM
same,TGI,OVCAR-5 ovarian,2960 nM and 3460 nM
same,GI50,CAKI-1 renal,1680 nM
same,TGI,CAKI-1 renal,4370 nM and 3140 nM
same,TGI,T-47D breast,4830 nM
same,GI50,MALME-3M melanoma,808 nM
same,TGI,MALME-3M melanoma,328 nM and 2070 nM
same,GI50,SK-OV-3 ovarian,17900 nM
same,TGI,SK-OV-3 ovarian,31700 nM
same,GI50,HOP-92 NSCLC,1540 nM
same,TGI,HOP-92 NSCLC,3700 nM and 3590 nM
same,GI50,OVCAR-4 ovarian,1610 nM
same,TGI,OVCAR-4 ovarian,3300 nM and 2970 nM
same,TGI,EKVX NSCLC,3880 nM and 3930 nM
same,GI50,SF-268 CNS,3290 nM
same,TGI,SF-268 CNS,3540 nM and 10900 nM
same,TGI,HS 578T breast,6880 nM
same,GI50,UACC-62 melanoma,1620 nM
same,TGI,UACC-62 melanoma,3740 nM and 3580 nM
same,GI50,K-562 leukemia,1400 nM
same,TGI,K-562 leukemia,5770 nM and 3570 nM
same,GI50,SW-620 colon,1320 nM
same,TGI,SW-620 colon,6550 nM and 3180 nM
same,GI50,MDA-N,359 nM
same,TGI,MDA-N,341 nM and 1130 nM
same,GI50,MOLT-4 leukemia,1440 nM
same,TGI,MOLT-4 leukemia,8030 nM and 3530 nM
same,TGI,NCI/ADR-RES ovarian,7410 nM and 5630 nM
same,TGI,MDA-MB-435,324 nM and 323 nM
same,TGI,SNB-19 CNS,3820 nM
same,GI50,OVCAR-3 ovarian,319 nM
same,TGI,OVCAR-3 ovarian,1860 nM and 1130 nM
same,GI50,UO-31 renal,1630 nM
same,TGI,UO-31 renal,3830 nM and 3350 nM
same,GI50,RPMI-8226 leukemia,2030 nM
same,TGI,RPMI-8226 leukemia,8860 nM and 5060 nM
same,GI50,SK-MEL-2 melanoma,1860 nM
same,TGI,SK-MEL-2 melanoma,2580 nM and 3820 nM
same,TGI,IGROV1 ovarian,3110 nM and 2970 nM
same,GI50,SK-MEL-28 melanoma,1750 nM
same,TGI,SK-MEL-28 melanoma,2900 nM and 3370 nM
same,GI50,SNB-75 CNS,1690 nM
same,TGI,SNB-75 CNS,3430 nM and 3090 nM
same,GI50,HCC-2998 colon,1700 nM
same,TGI,HCC-2998 colon,4030 nM and 3120 nM
same,GI50,HT29 colon,995 nM
same,TGI,HT29 colon,2050 nM and 2640 nM
same,GI50,A549 NSCLC,1740 nM
same,TGI,A549 NSCLC,4150 nM and 3780 nM
same,TGI,NCI-H226 lung,4010 nM and 4160 nM
same,TGI,SK-MEL-5 melanoma,300 nM and 295 nM
same,GI50,HOP-62 NSCLC,1900 nM
same,TGI,HOP-62 NSCLC,1800 nM and 3310 nM
same,GI50,MCF7 breast,510 nM
same,TGI,MCF7 breast,933 nM and 1920 nM
same,GI50,HL-60(TB) leukemia,305 nM
same,TGI,HL-60(TB) leukemia,2260 nM and 1040 nM
same,GI50,TK-10 renal,2900 nM
same,TGI,TK-10 renal,3570 nM and 5780 nM
same,GI50,NCI-H23 lung,1440 nM
same,TGI,NCI-H23 lung,2430 nM and 3340 nM
same,GI50,DU-145 prostate,500 nM
same,TGI,DU-145 prostate,2120 nM and 1620 nM
same,GI50,NCI-H522 lung,1690 nM
same,TGI,NCI-H522 lung,4440 nM and 3370 nM
same,GI50,CCRF-CEM leukemia,1920 nM
same,TGI,CCRF-CEM leukemia,7010 nM and 4310 nM
same,GI50,ACHN renal,1630 nM
same,TGI,ACHN renal,3410 nM and 3140 nM
same,TGI,OVCAR-8 ovarian,3490 nM
same,GI50,COLO 205 colon,320 nM
same,TGI,COLO 205 colon,661 nM and 1200 nM
same,GI50,NCI-H460 lung,2010 nM
same,TGI,NCI-H460 lung,3110 nM and 4200 nM
same,GI50,M14 melanoma,818 nM
same,TGI,M14 melanoma,353 nM and 2160 nM
same,GI50,UACC-257 melanoma,626 nM
same,TGI,UACC-257 melanoma,409 nM and 2060 nM
same,GI50,786-0 renal,1840 nM
same,TGI,786-0 renal,3060 nM and 3610 nM
same,GI50,RXF 393 renal,1500 nM
same,TGI,RXF 393 renal,3630 nM and 2940 nM
same,GI50,SF-295 CNS,2060 nM
same,TGI,SF-295 CNS,3090 nM and 3930 nM
same,GI50,LOX IMVI melanoma,914 nM
same,TGI,LOX IMVI melanoma,2340 nM and 2130 nM
same,GI50,PC-3 prostate,2670 nM
same,TGI,PC-3 prostate,4770 nM and 8280 nM
same,GI50,A498 renal,2160 nM
same,TGI,A498 renal,3180 nM and 3920 nM
same,TGI,U251 CNS,3550 nM and 3540 nM
same,GI50,HCT-116 colon,1290 nM
same,TGI,HCT-116 colon,1000 nM and 2640 nM
